Experimental data as given in patent US11000560B2, “Oncolytic adenoviruses with mutations in immunodominant adenovirus epitopes and their use in cancer treatment” (VCN B[…], priority 2015, dated 2021).

System: human HLA-A2.1
Assay: HLA-A2.1 stabilization assay (RMA-S A2 cells)
Assay type: binding
Settings: for reduction of HLA-A2 binding compared to unmodified counterpart: from Kd values; for HLA-A2 binding compared to unmodified counterpart: peptide 300 to 0.1 μM
Description: An HLA-A2.1 stabilization assay was used, with minor modifications from Takiguchi et al. (Takiguchi, M., Tissue Antigens. 2000 April; 55(4):296-302) (incorporated by reference herein in its entirety), to evaluate the binding affinity of mutated peptides. Murine cells expressing HLA-A2.1 (RMA-S A2 cells) were incubated for 18 h at 26° C. in order to allow for HLA-A2 surface expression in the absence of any peptide. Peptides were serially diluted 1:3 in a 96-well plate with a U shape bottom, starting with 300 μM up to 0.1 μM in 100 μl volume. 2.5e5 RMA-S A2 cells were added to each well in 100 μl volume. The mixture was incubated for 2 hours at 26° C. and then at 37° C. for 2 hours to allow unbound HLA-A2.1 to be internalized. Cells were spun for 3 minutes at 500 g and washed three times with PBS, FBS 5%, BSA 0.5%. Cells were incubated with 100 μl of the supernatant of hybridoma anti-HLA-A2.1 (PA2.1) and incubated for 30 minutes at 4° C. Cells were washed three times and then incubated with Alexa Fluor® 488 goat anti-mouse IgG (Molecular Probes®) at 1:500 dilution for 30 minutes at 4° C. Cells were washed three times and then analyzed with Gallios flow cytometer (Beckman Coulter). As a negative control, RMA-S A2 cells were incubated with a peptide having no affinity to HLA-A2.1 under the same experimental conditions. The fluorescence index was calculated using the formula: Fluorescein Index=(sample fluorescence−negative control fluorescence)/negative control fluorescence.
Using GraphPad Prism v5, Kd values were analyzed using a non-linear regression. A Kd value was obtained for each peptide that represents the binding constant in equilibrium with half of the maximum possible binding.

GLVDCYINP [L520P]
reduction of HLA-A2 binding compared to unmodified counterpart: more than 10 times

LLYANSAHS [A900S]
HLA-A2 binding compared to unmodified counterpart: maintained the same level of binding

YLNHTFKKA [V721A]
HLA-A2 binding compared to unmodified counterpart: maintained the same level of binding

YVLFEVFDK [V925K]
reduction of HLA-A2 binding compared to unmodified counterpart: ~600 times
